How the values were obtained:
α2-adrenoceptor = molecular target: T1, α2-adrenoceptor (Rattus norvegicus, UniProt P22909); assay: α2-adrenoceptor antagonistic activity on the rat field stimulated vas deferens preparation (against clonidine); conditions: for α2/α1 selectivity: antilog of (α2 pA2 - α1 pA2); for Kb: rat field stimulated vas deferens, clonidine as agonist, 37°, 90 min after introduction of antagonist, Arunlakshana & Schild, read-out: pA2 (α2) (converted)
T1 construct: from tissue; host or cells: desheathed vas deferens of sexually mature rats
T1 sequence (P22909 1-465): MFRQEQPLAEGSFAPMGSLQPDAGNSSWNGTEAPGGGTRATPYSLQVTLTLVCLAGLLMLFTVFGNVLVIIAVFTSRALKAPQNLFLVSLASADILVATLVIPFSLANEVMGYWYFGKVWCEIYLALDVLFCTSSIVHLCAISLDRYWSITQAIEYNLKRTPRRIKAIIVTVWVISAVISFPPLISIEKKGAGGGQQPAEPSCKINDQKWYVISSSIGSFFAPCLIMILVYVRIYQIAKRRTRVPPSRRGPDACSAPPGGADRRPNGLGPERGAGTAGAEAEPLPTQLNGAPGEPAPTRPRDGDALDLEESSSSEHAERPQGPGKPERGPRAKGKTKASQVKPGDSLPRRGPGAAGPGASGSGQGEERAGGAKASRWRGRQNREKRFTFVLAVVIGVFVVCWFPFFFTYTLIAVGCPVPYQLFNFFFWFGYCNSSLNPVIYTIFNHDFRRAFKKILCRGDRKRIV
Procedure: The compounds of the invention were tested for their α2 -adrenoceptor antagonistic activity on the rat field stimulated vas deferens preparation using a modification of the method of Drew, Eur.J.Pharmac., 1977, 42, 123-130. The procedure is described below.
Desheathed vas deferentia from sexually mature rats were suspended in a 6 ml organ bath in Krebs solution at 37° and bubbled with 5% CO2 in oxygen. Platinum ring electrodes were positioned above and below the tissue for field stimulation, the stimulus parameters being 0.1 Hz 1 ms pulse width at supramaximal voltage. Twitch responses were recorded isotonically with a 0.5 g loading. Clonidine hydrochloride was used as the α-adrenoceptor agonist and cumulative concentration-response curves were constructed for the inhibition of twitch obtained with clonidine in the range 0.125 to 4 ng ml^-1. After washing out clonidine, the twitch response quickly recovered and an antagonist was then introduced into the Krebs reservoir. Clonidine concentration-response curves were repeated 90 min after introduction of the antagonist. The concentration of clonidine producing 50% inhibition of twitch before and after introduction of antagonist were obtained and the dose-ratio for clonidine was calculated. Various concentrations of the antagonists were used.
Chemother., 1959, 14, 48-58 and the values of pA2 and slope were calculated.

α1-adrenoceptor = molecular target: T2, α1-adrenoceptor (Rattus norvegicus, UniProt P43140); assay: α1 antagonistic activity on the isolated anococcygeus muscle of the rat (against phenylephrine or methoxamine); conditions: antagonist of phenylephrine or methoxamine, 37°, 10^-6 to 10^-4 M test drug, 30 min equilibration, read-out: pA2 (α1) (converted)
T2 construct: isolated anococcygeus muscle of the rat; from tissue; host or cells: anococcygeus muscle of male rats (250-360 g)
T2 sequence (P43140 1-466): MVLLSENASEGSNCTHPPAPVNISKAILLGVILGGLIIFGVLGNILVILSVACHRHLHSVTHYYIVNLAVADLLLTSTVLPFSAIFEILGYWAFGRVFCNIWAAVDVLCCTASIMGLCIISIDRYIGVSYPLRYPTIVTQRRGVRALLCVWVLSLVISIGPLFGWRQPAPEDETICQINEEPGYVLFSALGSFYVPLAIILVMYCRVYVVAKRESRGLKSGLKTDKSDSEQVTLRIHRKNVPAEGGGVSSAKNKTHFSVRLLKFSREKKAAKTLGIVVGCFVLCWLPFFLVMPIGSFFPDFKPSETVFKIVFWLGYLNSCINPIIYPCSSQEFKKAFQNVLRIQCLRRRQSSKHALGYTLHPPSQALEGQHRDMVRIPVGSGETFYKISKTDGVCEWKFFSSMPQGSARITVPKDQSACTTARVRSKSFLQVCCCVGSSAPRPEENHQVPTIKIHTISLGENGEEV
From the text: The α1 antagonistic activity can be evaluated by a number of different methods. One method involves assessing the activity on the isolated anococcygeus muscle of the rat. The method is based on that of Gillespie, Br.J.Pharmac., 1972, 45, 404-416. In the procedure male rats (250-360 g) are killed by a blow on the head and bled. The two anococcygeus muscles are removed from their position in the midline of the pelvic cavity, where they arise from the upper coccygeal vertebrae. The muscles are suspended in 5 ml organ baths in Krebs solution containing 10^-4 M ascorbic acid, to prevent drug oxidation. The tissues are gassed with a 95% oxygen, 5% CO2 mixture and maintained at 37°. Longitudinal muscle contractions are recorded using isotonic transducers. Cumulative dose response curves are then obtained to phenylephrine or in some cases methoxamine, both agents being […] alpha adrenoceptor agonists. The concentration range of phenylephrine or methoxamine used is 0.02 to 0.8 μg.ml^-1. The agonist is then washed from the bath and the test drug added to the bathing medium at a concentration of 10^-6 M. After 30 min. equilibration with the test drug a further agonist dose response curve is obtained. The washing, equilibration and agonists dosing procedures are then repeated using 10^-5 M and 10^-4 M solutions of the test drug. Estimates of the pA2 value for the test drug as an antagonist of phenylephrine or methoxamine were made from the agonist dose-ratios using the method of Arunlakshana & Schild, Br.J.Pharmac.Chemother., 1959, 14, 48-58.

α2/α1 selectivity (α2-adrenoceptor)	Kb (α2-adrenoceptor) [µM]	Kb (α1-adrenoceptor) [µM]	Structure (SMILES)
46	0.0708	3.24	CN([C@H]1CCN2CCc3ccccc3[C@H]2C1)S(=O)(=O)C(F)(F)F (relative stereo) [Example 1, N-Methyl-N-(1,3,4,6,7,11bα-hexahydro-2H-benzo[a]quinolizin-2β-yl)-trifluoromethanesulphonamide]
43	0.0275	1.17	CN([C@H]1CCN2CCc3ccccc3[C@H]2C1)S(=O)(=O)CC(F)(F)F (relative stereo) [Example 2, N-Methyl-N-(1,3,4,6,7,11bα-hexahydro-2H-benzo[a]quinolizin-2β-yl)-2',2',2'-trifluoroethanesulphonamide]
45	0.00891	0.245	CN([C@H]1CCN2CCc3ccccc3[C@H]2C1)S(=O)(=O)CCl (relative stereo) [Example 3, N-Methyl-N-(1,3,4,6,7,11bα-hexahydro-2H-benzo[a]quinolizin-2β-yl)chloromethanesulphonamide]
27.5	0.00832	0.288	CN([C@H]1CCN2CCc3ccccc3[C@H]2C1)S(=O)(=O)CCCCl (relative stereo) [Example 4, N-Methyl-N-(1,3,4,6,8,11bα-hexahydro-2H-benzo[a]quinolizin-2β-yl)-3'-chloropropanesulphonamide]
